Measured values published in US20100129434A1, “COMPOSITIONS AND METHODS FOR THE TREATMENT OF MUCORMYCOSIS AND OTHER FUNGAL DISEASES” (priority 2006, published 2010).
Entries after “also recorded” stand apart in the source; their conditions may differ. Read-outs that look alike come from different tables or passages of the source.

Legend:
[1] = tested on: Th1/Th2 and inflammatory cytokine responses; experiment: Splenic lymphocyte frequency and whole organ cytokines in infected DKA mice; format: in vivo
Procedure: Splenic lymphocyte frequencies were determined as we have previously described (Spellberg et al., Infect. Immun. 71:5756-5764 (2003)). In brief, splenic homogenates were passed through 70 μm filters followed by RBC lysis with 0.15 M ammonium chloride. The cells were fixed with Cytofix™ buffer (BD Pharmingen®), permeabilized with Cytoperm™ buffer (BD Pharmingen), and stained with 10 μg/ml of FITC-conjugated anti-mouse CD4 (clone RM4-5), PE-conjugated anti-mouse IFN-γ (clone XMG1.2) or isotype control (clone R-34), allophycocyanin (APC)-conjugated anti-mouse IL-4 (clone 11B11) or isotype control (clone R3-34), or APC-conjugated anti-mouse IL-10 (clone JES5-16E3) or isotype control (clone A95-1) (all from BD Pharmingen). In separate experiments, the frequency of CD4+CD25+foxp3+T-regulatory cells were determined using the Mouse Regulatory T cell Staining™ Kit (eBioscience®) per the manufacturer's recommendation. The frequency of apoptosis was determined using the Annexin FITC Apoptosis™ kit (BD Pharmingen®).
Cells were washed and three-color flow cytometry was performed on a Becton-Dickinson FACScan™ instrument calibrated with CaliBRITE™ beads (BD Pharmingen) using FACSComp™ software as per the manufacturer's recommendations. During data acquisition, CD4+lymphocytes were gated by concatenation of forward and side scatter, and FITC-anti-CD4 antibody fluorescence properties. Data for each sample were acquired until 10,000 CD4+lymphocytes were analyzed.
Spleens and kidneys were homogenized in 1 ml of PBS. The homogenates were pelleted at maximum speed on a tabletop centrifuge at 4° C. The supernatants were assayed for cytokines using the Cytometric Bead Array Murine Inflammatory Cytokine™ kit (BD Pharmingen) per the manufacturer's instructions.
Because of the alterations in inflammatory cellular influx seen in kidneys of mice treated with saturating ferric chloride vs. iron chelation, in this example we determined the impact of deferasirox therapy on Th1/Th2 and inflammatory cytokine responses in infected mice. Diabetic ketoacidotic mice were infected with 3.1×10^4 spores of R. oryzae 99-892 as above and treated with deferasirox, deferasirox plus ferric chloride, or placebo. On day four of infection, spleens and kidneys were processed for intracellular and whole organ cytokine determination.

[2] = iron overloaded patients, cited from earlier work
[3] = tested on: rhinocerebral mucormycosis; experiment: Salvage therapy of a patient with rhinocerebral mucormycosis (case); format: in vivo, human; conditions: one patient
Procedure: A person with diabetic ketoacidosis presented to the emergency department of an outside hospital with polyuria, polydipsia, left retrobulbar pain, and a left cranial nerve (CN) VI palsy. […] The patient progressed to complete left opthalmoplegia in the first 24 hours. Rhinocerebral mucormycosis was suspected, and they were started on amphotericin B lipid complex (ABLC) at 5 mg/kg/day, along with empiric antibacterial agents, for treatment of sinusitis. On hospital day 2 they underwent endoscopic sphenooethmoid exploration. […] Bacterial culture grew only rare Enterobacter aerogenes.
Over the next twelve days, the patient developed blindness and worsening proptosis in the left eye. He was continued on ABLC and no further surgery was performed.
The patient was transferred to our institution for further management on hospital day 14. Immediately upon arrival, he underwent left orbital exenteration with enucleation and extensive sinus debridement and resection. Intraoperative findings included an ischemic globe with extensive surrounding necrosis of the extraocular muscles.
Antifungal therapy was continued. […] Given the location of the lesion at the superficial aspect of the pons, a dose of intracisternal amphotericin was administered, but the patient refused further doses. The patient remained clinically and neurologically unchanged. […]

rFTR1 = experiment: Expression analysis of the high affinity iron permease gene (rFTR1) by RT-PCR; format: cell-based, Rhizopus oryzae; conditions: R. oryzae 99-880 mycelia; 2 mM deferasirox plus 350 μM ferric chloride, 1 h at 37° C.
Procedure: R. oryzae 99-880 plugs taken from a confluent PDA plate were grown in potato dextrose broth overnight at 37° C. with shaking. Mycelia were collected aseptically and transferred to fresh PDB flasks containing 350 μM ferric chloride (to suppress the expression of rFTR1), 350 μM ferric chloride plus 2 mM deferasirox to test iron chelation, or 2 mM deferasirox plus 6 mM ferric chloride to supersaturate the added deferasirox. The flasks were incubated for 1 h at 37° C. with shaking. Mycelia were collected by filtration and ground in liquid nitrogen using mortar and pestle. Total RNA was extracted using RNeasy Plabt Mini™ kit (Qiagen®) with RLC buffer. The RNA was reverse-transcribed with oligo(dT) primer using the SuperScript™ First-Strand Synthesis System (Invitrogen®) to generate first-strand cDNA. The products were diluted and used in PCR to detect the expression of FTR1 of R. oryzae and 18 s rDNA gene. The sequences of the PCR primers are as follows: sense primer 5′-[…] -3′ and anti-sense primer 5′-[…] -3′ for rFTR1 to amplify of R. oryzae; and sense primer 5′-[…]′T′[…] -3′ and anti-sense primer 5′-[…] -3′ for 18 s rDNA gene. The PCR products were separated on a 2% agarose gel containing 0.1 μg/ml ethidium bromide. Both primer sets were designed to amplify a 400 by bands. […]

[4] = R. oryzae 99-892, between the groups
[5] = R. oryzae 99-892, vs saturating iron or placebo

In the case of `O=C(O)c1ccc(-n2nc(-c3ccccc3O)nc2-c2ccccc2O)cc1` [Deferasirox, 4-[3,5-Bis(2-hydroxyphenyl)-1H-1,2,4-triazol-1-yl]-benzoic acid], the “Th1 and Th2 splenocyte frequencies” value ([1]; 3.1×10^4 spores R. oryzae 99-892, day four, vs saturating ferric chloride or placebo) was “significant increase”, the “kidney level of IFN-γ” value ([1]; R. oryzae 99-892) was “significantly higher” and the “frequencies of CD4+IL-10+ or CD4+CD25+foxp3+ splenocytes” value [1, 4] was “not significantly different”. For the same compound, the splenocyte apoptosis [1, 4] was “no significant difference”, the “splenic level of IFN-γ” value [1, 5] was “significantly higher” and the “splenic level of TNF” value [1, 5] was “significantly higher”. The tolerability ([2]; chronic dosing over months to years, up to 30 mg/kg/d) was “very well tolerated”, the tolerability ([2]; up to 40 mg/kg/d for up to 12 days) was “very well tolerated” and the “repeat MRI of the brain” value ([3]; 1000 mg po daily seven days, LAmB continued, one week after treatment) was “resolution of the edema in the left cerebellar peduncle”. For the same compound, the radiographic outcome ([3]; after 7 days of treatment) was “substantial radiographic improvement” and the “rFTR1 gene expression (RT-PCR)” value (rFTR1) was “expressed; also recorded: induces rFTR1 gene expression”.
